The structures appear in SMILES notation.

Consider 18 molecules from ChEMBL document CHEMBL1135392, “Rational determination of transfer free energies of small drugs across the water-oil interface” (J Med Chem, 2002).

What all share (conditions): octanol/water
Data set [1] is described as follows: Partition coefficient (logP) (dodecane).
Data set [2] is described as follows: Partition coefficient across water-dodecane interface by statistical simulation.
Data set [3] can be described thus: Partition coefficient (logP).

For orientation: logP means the decadic logarithm of the partition coefficient of the neutral form, usually between octanol and water. For `Cc1cc(=O)n(-c2ccccc2)n1C` [ANTIPYRINE], the lipophilicity (logP) is -2.52 in data set [1] and -2.5 in data set [2].

`CC(=O)Nc1ccccc1` [ACETANILIDE]: the lipophilicity (logP) in data set [1] was -1.76; in data set [3] it was 1.13.

For `c1ccc2nccnc2c1` [QUINOXALINE], the lipophilicity (logP) in data set [1] was found to be 0.51; in data set [3] it was 1.35.

Turning to `OC[C@H]1O[C@H](O)[C@H](O)[C@@H](O)[C@@H]1O`, the logP was under -3 in data set [1] and -3.02 in data set [3].

As for `NC(=O)c1ccccc1` [BENZAMIDE], the log partition coefficient (logP) in data set [1] was -2.67; in data set [3], 0.67.

Regarding `CC(=O)c1ccc(S(C)(=O)=O)cc1`, the logP in data set [1] is -1.56; in data set [3], 0.33.

For `CC(=O)c1ccccc1` [ACETOPHENONE], the figures for the log partition coefficient (logP) in data set [1] and in data set [3] were 0.94 and 1.56, respectively.

For the molecule `OCc1ccccc1` [BENZYL ALCOHOL], the logP in data set [1] was -0.77.

For `COc1ccccc1` [ANISOLE], in data set [1], the logP came to 2.06.

Take `c1ccc2nc3ccccc3cc2c1` [ACRIDINE]: the results for the logP in data set [1] and in data set [3] were 2.32 and 2.98, respectively.

Regarding `O=C1Cc2ccccc2N1` [OXINDOLE], the lipophilicity (logP) in data set [1] was -1.95; in data set [3], 1.07.

In the case of `NC(=O)c1ccccc1N` [ANTHRANILAMIDE], the logP in data set [1] was -2.72; in data set [3] it was 0.32.

Regarding `O=[N+]([O-])c1ccccc1` [NITROBENZENE], the logP came out at 1.43 in data set [1] and 1.84 in data set [3].

`NS(=O)(=O)c1ccccc1` [BENZENESULFONAMIDE]: the values for the logP in data set [1] and in data set [3] were -3.14 and 0.33, respectively.

`Oc1cccc(Cl)c1`: in data set [1], the lipophilicity (logP) is -0.34.

Turning to `Oc1ccccc1` [PHENOL], the results for the lipophilicity (logP) in data set [1] and in data set [3] were -1.04 and 1.5, respectively.

Turning to `Brc1cnc2ccccc2c1`, the logP in data set [1] came out at 2.59; in data set [3], 3.11.

As for `CN1C(=O)Cc2ccccc21`, the logP was -0.9 in data set [1] and 0.63 in data set [3].
